GI50 and TGI data for twelve compounds are collected here from PubChem BioAssay (NCI).

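Method: 48-hour compound exposure of cells in 96-well plates, five concentrations, linear interpolation of endpoints. The concentration for 50% growth inhibition is given as GI50. TGI: concentration producing complete growth inhibition.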 A value given as a limit tells only on which side of the number the result lay.

Holding throughout (assay): NCI tumour cell line growth inhibition, 48 h
Test [1] concerns SF-295 CNS.
The subject of test [2] is MOLT-4 leukemia.
Test [3] relates to SK-MEL-28 melanoma.
Test [4] has as its system SF-539 CNS.
Test [5] deals with HL-60(TB) leukemia.
For test [6], the system named is SW-620 colon.
Test [7] relates to CCRF-CEM leukemia.
The test system of test [8] is HCT-15 colon.
Test [9] concerns RPMI-8226 leukemia.
The subject of test [10] is NCI-H460 lung.

With `Cc1ccc(NC(=O)c2sc3nc(C)c(C(O)c4ccccc4)cc3c2N)cc1` (stereo not given), the GI50 in [1] is 0.339 µM; in [2], 0.643 µM; in test [3], 0.772 µM; in test [4], 0.287 µM; in test [5] it was 0.293 µM; in test [6], 0.355 µM. In addition, the GI50 in test [7] was 0.375 µM; in [8] it was 0.397 µM; in [9], 0.421 µM; in [10], 0.359 µM. Further, the TGI in test [1] is 4.03 µM; in [2], more than 100 µM; in test [3], more than 100 µM; in [4], 1.3 µM; in test [5] it was 0.909 µM; in [6], 52.7 µM. For the same compound, the TGI in [7] was more than 49.7 µM; in test [8], more than 73 µM; in test [9], 43.3 µM; in test [10], 5.32 µM.

As for `CC[C@H](C)[C@H]1O[C@]2(C=C[C@@H]1C)C[C@@H]1C[C@@H](C/C=C(\C)[C@@H](O[C@H]3C[C@H](OC)[C@@H](O[C@H]4C[C@H](OC)[C@@H](NC)[C@H](C)O4)[C@H](C)O3)[C@@H](C)/C=C/C=C3\CO[C@@H]4[C@H](O)C(C)=C[C@@H](C(=O)O1)[C@]34O)O2`, the GI50 is 2.6 µM in [1]; 1.81 µM in test [2]; 1.73 µM in [3]; 1.81 µM in test [4]; 1.88 µM in test [5]; 2.14 µM in test [6]. In addition, the GI50 in test [7] is 1.87 µM; in test [8], 1.78 µM; in test [9] it was 3.32 µM; in test [10], 1.84 µM. Further, the TGI in test [1] amounted to 8.17 µM; in test [2], 4.48 µM; in test [3], 3.47 µM; in test [4] it was 3.37 µM; in [5], 3.81 µM; in test [6], 4.74 µM. For the same compound, the TGI in test [7] was found to be 4.02 µM; in test [8] it was 4.46 µM; in test [9] it was 13.6 µM; in test [10], 3.63 µM.

Take `c1cc2c(ncc3cscc32)s1`: the TGI in test [1], in test [2], in [3], in test [4], in [5] and in test [6] was more than 100 µM throughout. For the same compound, the TGI in [7], in test [8], in test [9] and in [10] was more than 100 µM in each case.

For the compound `OC/C=C(\I)CCCOCOCc1ccccc1`, the TGI in test [1] was more than 100 µM; in test [2], 13.1 µM; in [3], more than 100 µM; in test [4], more than 100 µM; in [5] it was 35.8 µM; in test [6] it was more than 100 µM. In addition, the TGI in test [7] was 46.1 µM; in test [8], more than 100 µM; in [9], 47.5 µM; in test [10], more than 100 µM.

Consider `CC1=N/C(=C\c2cccc([N+](=O)[O-])c2)C(=O)O1`, for which the TGI in [1], in [2], in test [3], in [4], in [5] and in test [6] was more than 100 µM each time. For the same compound, the TGI in test [7], in [8], in test [9] and in [10] was more than 100 µM in each case.

Take `N#CCC(=O)NC1C2CC3CC(C2)CC1C3` (stereo not given): the TGI in test [1] is 32 µM; in test [2] it was more than 100 µM; in test [3], 43.3 µM; in test [4] it was 32.3 µM; in [5] it was 61.6 µM; in test [6] it was 51.7 µM. Also, the TGI is more than 100 µM in test [7], 35.9 µM in test [8], more than 100 µM in test [9] and 32.3 µM in test [10].

For the compound `N#CCc1ccc(C(C#N)/C(CCCC(=O)Nc2cccc([N+](=O)[O-])c2)=N/NC(N)=S)cc1` (stereo not given), the TGI in [1], in [2], in test [3], in test [4], in test [5] and in [6] was more than 100 µM each time. Moreover, the TGI in test [7], in test [8], in test [9] and in test [10] was more than 100 µM each time.

Regarding `COC(=O)c1cc(C)c(C)c2c1NC(=O)CNC2=O`, the TGI in [1], in test [2], in test [3], in test [4], in test [5] and in [6] was more than 100 µM in each case. The TGI in test [7], in [8], in test [9] and in test [10] was more than 100 µM throughout.

Take `CCc1ccc(Nc2ccc([N+](=O)[O-])cc2[N+](=O)[O-])cc1`: the TGI in [1], in [2], in [3], in test [4], in test [5] and in test [6] was more than 100 µM throughout. Besides, the TGI in [7], in test [8], in test [9] and in [10] was more than 100 µM in each case.

For the compound `Nc1ncn(C2CC(O)C(CO)O2)c(=O)n1` (stereo not given), the TGI in test [1] was 247 µM; in test [2], more than 375 µM; in [3], more than 324 µM; in test [4] it was 158 µM; in [5], 103 µM; in test [6] it was 373 µM. Moreover, the TGI in test [7] is more than 261 µM; in test [8] it was more than 302 µM; in test [9], more than 375 µM; in [10], more than 375 µM.

As for `CN(C)C(c1ccccc1)C(O)c1ccccc1` (stereo not given), the TGI in [1], in test [2], in test [3], in [4], in test [5] and in [6] was more than 100 µM throughout. For the same compound, the TGI in test [7], in [8], in [9] and in test [10] was more than 100 µM each time.

Regarding `CCCCOC(=O)NC(=O)c1cn(C2CCCCC2)c(=O)[nH]c1=O`, the TGI in test [1] is more than 100 µM; in [2] it was more than 100 µM; in test [3] it was more than 100 µM; in test [4] it was 37.9 µM; in test [5] it was more than 100 µM; in test [6], more than 100 µM. In addition, the TGI in [7], in test [8], in test [9] and in [10] was more than 100 µM in each case.
